From patent US5650428A, “Arylsulfonamide derivative and pharmaceutical compositions and use thereof” (NKK Corporation, priority 1993, dated 1997)
Counter-ions that a name gives are not always drawn.

Legend:
rat platelet = assay: Inhibitory activity of aggregation in rat platelet; type: cell-based; details: rat platelet rich plasma, arachidonic acid (final concentration 0.5 mM) as inducer; read-out: C: Inhibitory activity of aggregation in rat platelet (IC50; μM)
Protocol: (3) Inhibitory Activity of Aggregation in Rat Platelet The abdomen of etherized rat was open, and blood was taken from the abdominal arteries, using a sodium citrate solution (final concentration was 0.38%). The blood was centrifuged at 1100 rpm for 10 minutes, and the supernatent was separated as the platelet rich plasma. The plasma was further centrifuged at 2000 rpm for 15 minutes to obtain the supernatent as a platelet poor plasma. The platelet rich plasma (280 μl) was placed in a measuring cuvette and preincubated for 1 minute at 37° C. Then, a sample solution (10 μl) was added. After 2 minutes, an arachidonic acid solution (final concentration=0.5 mM) (10 μl) was added as an inducer. The change in light transmission was recorded for 5 minutes.

[1] = molecular target: T1, thromboxane A2 (TxA2) receptor (Cavia porcellus, UniProt A0A286Y4I8); assay: TxA2 antagonist action by binding assay; details: washed guinea pig platelets, 1 nM [3H]-SQ29,548, 45 minutes at 25° C.
T1 construct: to obtain washed platelets; from tissue; host or cells: washed platelets of male Hartley guinea pigs
T1 sequence (A0A286Y4I8 1-347): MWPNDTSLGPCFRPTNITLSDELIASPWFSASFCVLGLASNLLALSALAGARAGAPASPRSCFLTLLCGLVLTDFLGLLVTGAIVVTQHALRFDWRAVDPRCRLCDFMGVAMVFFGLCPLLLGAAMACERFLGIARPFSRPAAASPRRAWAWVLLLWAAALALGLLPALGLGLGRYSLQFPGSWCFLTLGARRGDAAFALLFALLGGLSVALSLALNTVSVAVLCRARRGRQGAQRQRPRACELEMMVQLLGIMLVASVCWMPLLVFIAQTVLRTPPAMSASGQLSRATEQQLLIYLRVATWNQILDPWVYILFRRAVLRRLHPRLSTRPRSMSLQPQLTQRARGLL
Protocol: (1) TxA2 antagonist action by binding assay Guinea pigs (Hartley; male; body weight=approximately 500 g) were anesthetized with ether, and the blood was collected into sodium citrate (final concentration=0.38%). The preparation of platelets was carried out at room temperature. The platelet rich plasma was obtained by centrifugation at 980 rpm for 10 minutes. One tenth (1/10) amount of 77 mM-EDTA-Na (pH 7.4) was added to the platelet rich plasma, and the mixture was centrifuged for 10 minutes at 3000 rpm. The suspension was again centrifuged at 3000 rpm for 10 minutes. The precipitate was further resuspended in a suspension buffer (2) shown in Table 2 to obtain washed platelets. The number of platelets was counted by an automatic blood cell counter (Sysmex Microcellcounter F-800) and the sample was diluted with the suspension buffer to 4×10^8 cells/ml. The platelets, sample solution and labeled compounds were placed into plastic tubes in amounts (volumes) shown in the following Table 3, incubated for 45 minutes at 25° C., and then the mixture was filtered using a cell harvester (Brandel cell harvester M-24R) by a glass fiber filter (Whatman GF/B). After the filter was sufficiently dried, the scintillation was counted by a scintillation counter (Beckman LS5000TD). IC50 was calculated from (binding)/(control binding) ratio in the presence of an antagonist. [table 3: the next 10 blocks are its lines as printed, fixed-width]

IC50 (rat platelet) | IC50 [1] | Structure (SMILES)
0.051 µM | 0.005 µM | O=C(O)CCc1ccc(NC(=O)[C@H](Cc2ccccc2)NS(=O)(=O)c2ccc(Br)cc2)cc1 [Example 254, (S)-2-(4-bromobenzenesulfonylamino)-N-(4-(2-carboxyethyl)phenyl)-3-phenylpropanamide]
1.7 µM | 2.2 µM | O=C(O)Cc1ccc(NC(=O)C(COC2CCCCO2)NS(=O)(=O)c2ccccc2)cc1 (racemic) [Example 52, (RS)-2-(benzenesulfonylamino)-N-(4-(carboxymethyl)phenyl)-3-(tetrahydropyran-2-yloxy) propanamide]
0.17 µM | 0.0087 µM | O=C(O)c1cccc(NC(=O)[C@H](Cc2ccccc2)NS(=O)(=O)c2ccc(Br)cc2)c1 [Example 257, (S)-2-(4-bromobenzenesulfonylamino)-N-(3-carboxyphenyl)-3-phenylpropanamide]
1.79 µM | 1.5 µM | O=C(O)CCc1ccc(NC(=O)C(Cn2ccnc2)NS(=O)(=O)c2ccc(Cl)cc2)cc1 (racemic) [Example 95, (RS)-N-(4-(2-carboxyethyl)phenyl)-2-(4-chlorobenzenesulfonylamino)-3-(1H-imidazol-1-yl)propanamide hydrochloride]
0.55 µM | 0.15 µM | O=C(O)Cc1ccc(NC(=O)C(COc2ccccc2)NS(=O)(=O)c2ccc(F)cc2)cc1 (racemic) [Example 136, (RS)-N-(4-(carboxymethyl)phenyl)-2-(4-fluorobenzenesulfonylamino)-3-phenoxypropanamide]
0.53 µM | 0.024 µM | O=C(O)Cc1ccc(NC(=O)C(COc2ccccc2)NS(=O)(=O)c2ccc(Br)cc2)cc1 (racemic) [Example 142, (RS)-2-(4-bromobenzenesulfonylamino)-N-(4-(carboxymethyl)phenyl)-3-phenoxypropanamide]
0.17 µM | 0.029 µM | O=C(O)CCc1ccc(NC(=O)[C@H](Cc2ccccc2)NS(=O)(=O)c2ccc(Cl)cc2)cc1 [Example 250, (S)-N-(4-(2-carboxyethyl)phenyl)-2-(4-chlorobenzenesulfonylamino)-3-phenylpropanamide]
1.7 µM | 0.019 µM | O=C(O)Cc1ccc(NC(=O)C(COc2cccc(Cl)c2)NS(=O)(=O)c2ccc(I)cc2)cc1 (racemic) [Example 151, (RS)-N-(4-(carboxymethyl)phenyl)-3-(3-chlorophenoxy)-2-(4-iodobenzenesulfonylamino) propanamide]
1.7 µM | 0.41 µM | O=C(O)CCCCCCNC(=O)C(Cn1ccnc1)NS(=O)(=O)c1ccc(Cl)cc1 (racemic) [Example 101, (RS)-N-(6-carboxyhexyl)-2-(4-chlorobenzenesulfonylamino)-3-(1H-imidazol-1-yl)propanamide hydrochloride]
0.53 µM | 0.2 µM | O=C(O)Cc1ccc(NC(=O)C(COC2CCCCO2)NS(=O)(=O)c2ccc(F)cc2)cc1 (racemic) [Example 53, (RS)-N-(4-(carboxymethyl)phenyl)-2-(4-fluorobenzenesulfonylamino)-3-(tetrahydropyran-2-yloxy)propanamide]

More lines, now with the values behind:

Structure (SMILES) | IC50 (rat platelet) | IC50 [1]
O=C(O)Cc1ccc(NC(=O)C(COc2ccc(Cl)cc2)NS(=O)(=O)c2ccc(Br)cc2)cc1 (racemic) [Example 143, (RS)-2-(4-bromobenzenesulfonylamino)-N-(4-(carboxymethyl)phenyl)-3-(4-chlorophenoxy) propanamide] | 1.7 µM | 0.037 µM
O=C(O)Cc1ccc(NC(=O)C(Cn2ccnc2)NS(=O)(=O)c2ccc(Cl)cc2)cc1 (racemic) [Example 94, (RS)-N-(4-(carboxymethyl)phenyl)-2-(4-chlorobenzenesulfonylamino)-3-(1H-imidazol-1-yl)propanamide hydrochloride] | 1.7 µM | 0.86 µM
O=C(O)Cc1ccc(NC(=O)C(Cn2ccnc2)NS(=O)(=O)c2ccc(F)cc2)cc1 (racemic) [Example 103, (RS)-N-(4-(carboxymethyl)phenyl)-2-(4-fluorobenzenesulfonylamino)-3-(1H-imidazol-1-yl)propanamide] | 1.7 µM | 1.9 µM
O=C(O)Cc1ccc(NC(=O)C(Cc2ccccc2)NS(=O)(=O)c2ccc(Cl)cc2)cc1 (racemic) [Example 247, (RS)-N-(4-(carboxymethyl)phenyl)-2-(4-chlorobenzenesulfonylamino)-3-phenylpropanamide] | 0.54 µM | 0.046 µM
O=C(O)Cc1ccc(NC(=O)C(COc2ccccc2)NS(=O)(=O)c2ccc(Cl)cc2)cc1 (racemic) [Example 129, (RS)-N-(4-(carboxymethyl)phenyl)-2-(4-chlorobenzenesulfonylamino)-3-phenoxypropanamide] | 0.54 µM | 0.72 µM
CSCC[C@@H](NS(=O)(=O)c1ccc(Cl)cc1)C(=O)Nc1ccc(CC(=O)O)cc1 [Example 235, (R)-N-(4-(carboxymethyl)phenyl)-2-(4-chlorobenzenesulfonylamino)-4-methylthiobutanamide] | 17.1 µM | 22 µM
O=C(O)Cc1ccc(NC(=O)C(COc2ccc(Cl)cc2)NS(=O)(=O)c2ccc(Cl)cc2)cc1 (racemic) [Example 130, (RS)-N-(4-(carboxymethyl)phenyl)-2-(4-chlorobenzenesulfonylamino)-3-(4-chlorophenoxy)propanamide] | 1.7 µM | 0.16 µM
CSCCC(NS(=O)(=O)c1ccc(Cl)cc1)C(=O)Nc1ccc(CC(=O)O)cc1 (racemic) [Example 233, (RS)-N-(4-(carboxymethyl)phenyl)-2-(4-chlorobenzenesulfonylamino)-4-methylthiobutanamide] | 0.17 µM | 0.17 µM
O=C(O)Cc1ccc(NC(=O)C(COc2cccnc2)NS(=O)(=O)c2ccc(Br)cc2)cc1 (racemic) [Example 124, (RS)-2-(4-bromobenzenesulfonylamino)-N-(4-(carboxymethyl)phenyl)-3-(pyridin-3-yloxy)propanamide] | 0.31 µM | 0.13 µM
CSCC[C@H](NS(=O)(=O)c1ccc(Br)cc1)C(=O)Nc1ccc(CCC(=O)O)cc1 [Example 240, (S)-2-(4-bromobenzenesulfonylamino)-N-(4-(2-carboxyethyl)phenyl)-4-methylthiobutanamide] | 0.17 µM | 0.099 µM
CC(C)CC(NS(=O)(=O)c1ccc(Cl)cc1)C(=O)Nc1ccc(CC(=O)O)cc1 (racemic) [Example 232, (RS)-N-(4-(carboxymethyl)phenyl)-2-(4-chlorobenzenesulfonylamino)-4-methylpentanamide] | 1.7 µM | 0.16 µM
O=C(O)CCc1ccc(NC(=O)C(Cc2ccccc2)NS(=O)(=O)c2ccc(Cl)cc2)cc1 (racemic) [Example 249, (RS)-N-(4-(2-carboxyethyl)phenyl)-2-(4-chlorobenzenesulfonylamino)-3-phenylpropanamide] | 0.18 µM | 0.024 µM
